Literature values, collected in patent publication US20110282046A1, “PROCESS FOR PREPARATION OF CIS-NUCLEOSIDE DERIVATIVE” (priority 2009, published 2011).
Like-named read-outs stand apart in the source and are kept apart here.

Settings: for volume of water in which 1 g dissolves: Merck Index Entry no. 8869

| volume of water in which 1 g dissolves (boiling water) [mL] | volume of water in which 1 g dissolves (cold water) [mL] | solubility in water (water, Merck Index Entry no. 8332) [g in 100 ml water] | SMILES |
| --- | --- | --- | --- |
| 1 | 13 | – | O=C(O)CCC(=O)O [Succinic acid] |
| – | – | 0.20 | O=C(O)c1ccccc1O [salicylic acid] |
